Laboratory results taken from paper PMC12597562 (Molecular Pharmacology, 2025).

How the values were obtained:
[1] = target: T1, human DAT (Homo sapiens, UniProt Q01959); assay: [3H]dopamine uptake inhibition, intact cells; assay type: cell-based
T1 construct: gene SLC6A3; full-length codon-optimized human DAT with N-terminal mScarlet-I tag (subcloned from EYFP-DAT), stably expressed in TAAR1 KO HEK293 cells

[2] = target: T1, human DAT; assay: […]RTI-55 competition binding, cell membranes; conditions: read-out: Inhibition of [^125I]RTI-55 Binding pKi ± SD (n) (converted)
[3] = substrate: NCCc1ccc(O)c(O)c1; assay: cells, lysate or membranes; conditions: TAAR1-/- DAT cells, vehicle pretreatment, 10 min uptake; labelled compound; n=4

CCN(C[C@H]1COC(N)=N1)c1ccccc1 [RO5166017]
IC50 ([1]; read-out: Inhibition of [^3H]DA Uptake pIC50 ± SD (n) (converted)): 17.4 µM | Ki [2]: 21.9 µM

CC[C@@H](C[C@H]1COC(N)=N1)c1ccccc1 [RO5256390]
Inhibition of [^3H]DA Uptake pIC50 ± SD (n) ([1]; 20 nM [3H]DA, 10 min preincubation, 10 min uptake, 25 °C, Krebs-HEPES buffer, n=6): 5.73 ± 0.23

B1: human DAT (Homo sapiens) (protein)
chain: MSKSKCSVGLMSSVVAPAKEPNAVGPKEVELILVKEQNGVQLTSSTLTNPRQSPVEAQDRETWGKKIDFLLSVIGFAVDLANVWRFPYLCYKNGGGAFLVPYLLFMVIAGMPLFYMELALGQFNREGAAGVWKICPILKGVGFTVILISLYVGFFYNVIIAWALHYLFSSFTTELPWIHCNNSWNSPNCSDAHPGDSSGDSSGLNDTFGTTPAAEYFERGVLHLHQSHGIDDLGPPRWQLTACLVLVIVLLYFSLWKGVKTSGKVVWITATMPYVVLTALLLRGVTLPGAIDGIRAYLSVDFYRLCEASVWIDAATQVCFSLGVGFGVLIAFSSYNKFTNNCYRDAIVTTSINSLTSFSSGFVVFSFLGYMAQKHSVPIGDVAKDGPGLIFIIYPEAIATLPLSSAWAVVFFIMLLTLGIDSAMGGMESVITGLIDEFQLLHRHRELFTLFIVLATFLLSLFCVTNGGIYVFTLLDHFAAGTSILFGVLIEAIGVAWFYGVGQFSDDIQQMTGQRPSLYWRLCWKLVSPCFLLFVVVVSIVTFRPPHYGAYIFPDWANALGWVIATSSMAMVPIYAAYKFCSLPGSFREKLAYAIAPEKDRELVDRGEVRQFTLRHWLKV
Km [3]: 0.631 ± 0.26 µM | Vmax [3]: 1.63e-06 µmol/min/mg
